# System: rice blast Pyricularia oryzae
# Type: in vivo
# Settings: 2000 ppm; soil and leaves; 7 days; controls less than 5%
compound,measurement,value
"CCS(=O)(=O)N(CC(=O)C(C)(C)C)c1c(C)cccc1C [Example 212, N-2-oxo-3,3-dimethylbutyl-2',6'-dimethyl-ethanesulphonanilide]","% Control, rice blast",80%
